# Data: ChEMBL document CHEMBL5233251, “Epoxide containing molecules: A good or a bad drug design approach” (Eur J Med Chem, 2020)
# Where a SMILES comes first, the peptide text is derived from it. [ ]: non-standard residue; d: D form. Aoe = N[C@@H](CCCCCC(=O)[C@@H]1CO1)C(=O)O
# How the values were obtained:
# MIA PaCa-2 = assay: Cytotoxicity against human MIA PaCa-2 cells assessed as inhibition of cell proliferation incubated for 72 hrs by MTT assay; format: functional, cell-based
# [1] = (§1) Cytotoxicity against HUVEC cells assessed as inhibition of cell growth incubated for 72 hrs by MTT assay; format: toxicity, cell-based, Homo sapiens; details: human, HUVEC cells
# [2] = Cytotoxicity against human DeFew cells assessed as inhibition of cell proliferation incubated for 72 hrs by MTT assay; format: functional, cell-based
# HCT-116 [3] = assay: Antiproliferative activity against human HCT-116 cells assessed as inhibition of cell growth incubated for 72 hrs by MTT assay; format: functional, cell-based; details: HCT-116, 72 h
# SF-295 [4] = assay: Antiproliferative activity against human SF-295 cells assessed as inhibition of cell growth incubated for 72 hrs by MTT assay; format: functional, cell-based; details: SF-295, 72 h
# HL-60 = assay: Antiproliferative activity against human HL-60 cells assessed as inhibition of cell growth incubated for 72 hrs by MTT assay; format: functional, cell-based; details: HL-60, 72 h
# OVCAR-8 [5] = assay: Antiproliferative activity against human OVCAR-8 cells assessed as inhibition of cell growth at 25 ug/ml incubated for 72 hrs by MTT assay relative to control; format: functional; set-up: scale not given: the % may be the effect or the level left; details: dose 25 µg/ml
# OVCAR-8 [6] = assay: Antiproliferative activity against human OVCAR-8 cells assessed as inhibition of cell growth incubated for 72 hrs by MTT assay; format: functional, cell-based; details: OVCAR-8, 72 h
# Leishmania donovani = assay: Antileishmanial activity against Leishmania donovani promastigotes; format: functional, organism-based
# HCT-116 [7] = assay: Antiproliferative activity against human HCT-116 cells assessed as inhibition of cell growth at 25 ug/ml incubated for 72 hrs by MTT assay relative to control; format: functional; set-up: scale not given: the % may be the effect or the level left; details: dose 25 µg/ml
# SF-295 [8] = assay: Antiproliferative activity against human SF-295 cells assessed as inhibition of cell growth at 25 ug/ml incubated for 72 hrs by MTT assay relative to control; format: functional; set-up: scale not given: the % may be the effect or the level left; details: dose 25 µg/ml
# SUD4 = assay: Antitumor activity against human SU-DHL-4 cells assessed as reduction in cell viability; format: functional, cell-based
# [9] = Induction of apoptosis in human multiple myeloma cell; format: functional, cell-based
# RPMI-8226 = assay: Antitumor activity against human RPMI-8226 cells assessed as reduction in cell viability; format: functional, cell-based
# DOHH-2 = assay: Antitumor activity against human DOHH-2 cells assessed as reduction in cell viability; format: functional, cell-based
# [10] = Antitumor activity against human INA-6 cells assessed as reduction in cell viability; format: functional, cell-based
# SW480 = assay: Induction of apoptosis in human SW480 cells assessed as accumulation of cells at 5 uM incubated for 24 hrs by Acridine orange/ethidium bromide staining based fluorescent microscopic analysis (reference value: 13.6%); format: functional
# HUVEC = assay: as §1; format: toxicity, cell-based, Homo sapiens; details: huvec
# [11] = Antiproliferative activity against human SH-EP cells assessed as inhibition of cell growth by tryphan blue exclusion assay; format: functional, cell-based
# T47D = assay: Antiproliferative activity against human T47D cells assessed as inhibition of cell proliferation incubated for 72 hrs by DAPI staining based flow cytometric analysis; format: functional
# BE(2)-C = assay: Antiproliferative activity against human BE2C cells assessed as inhibition of cell growth by tryphan blue exclusion assay; format: functional, cell-based
# MCF7 = assay: Cytotoxicity against human MCF7 cells incubated for 24 hrs by MTT assay; format: functional, cell-based; details: MCF7, 24 h
# SK-MES-1 = assay: Antiproliferative activity against human SK-MES-1 cells assessed as reduction in cell viability incubated for 72 hrs by MTT assay; format: functional, cell-based; details: SK-MES-1, 72 h
# A549 = assay: Antiproliferative activity against human A549 cells assessed as reduction in cell viability incubated for 72 hrs by MTT assay; format: functional, cell-based; details: A549, 72 h
# NCI-H460 = assay: Antiproliferative activity against human NCI-H460 cells assessed as reduction in cell viability incubated for 72 hrs by MTT assay; format: functional, cell-based; details: NCI-H460, 72 h
# NCI-H1299 = assay: Antiproliferative activity against human NCI-H1299 cells assessed as reduction in cell viability incubated for 72 hrs by MTT assay; format: functional, cell-based; details: NCI-H1299, 72 h
# [12] = Cytotoxicity against human BEAS-2B assessed as reduction in cell viability incubated for 72 hrs by MTT assay; format: toxicity, cell-based; details: BEAS-2B cells
# Calu-3 = assay: Antiproliferative activity against human Calu-3 cells assessed as reduction in cell viability incubated for 72 hrs by MTT assay; format: functional, cell-based; details: Calu-3, 72 h
# B16 = assay: Antitumor activity against mouse B16 cells implanted in BDF1 mouse assessed as T/C ratio at 25 mg/kg, ip administered from day 1 to 5 and measured after 60 days; format: functional; details: time 60 day
# Sarcoma-180 [13] = assay: Antitumor activity against mouse Sarcoma-180 cells solid form implanted in ICR mouse assessed as T/C ratio at 12.5 mg/kg, ip administered from day 1 to 5 and measured after 60 days; format: functional; details: time 60 day
# Ehrlich = assay: Antitumor activity against mouse Ehrlich cells implanted in ddY mouse assessed as T/C ratio at 70 mg/kg administered for 9 to 10 days; format: functional; details: time 9-10 day
# [14] = Antitumor activity against IMC (unknown origin) cells xenografted in CDF1 mouse assessed as T/C ratio at 200 mg/kg, ip administered from day 1 to 5 and measured after 60 days; format: functional; details: time 60 day
# Sarcoma-180 [15] = assay: Antitumor activity against mouse Sarcoma-180 cells ascitic form implanted in ICR mouse assessed as T/C ratio at 100 mg/kg, ip administered from day 1 to 5 and measured after 60 days; format: functional; details: time 60 day
smiles,measurement,setting,value
CC(C)=CCCC1(C)OC1C=O (stereo in doubt; 10b),IC50,"MIA PaCa-2; Homo sapiens, MIA PaCa-2, 72 h",94 µM
same,IC50 at 72 h,[1],162 µM
same,IC50,"[2]; Homo sapiens, DeFew, 72 h",89 µM
C[C@]1([C@H]2CC=C(C=O)CC2)CO1,IC50,HCT-116 [3],1.03 µg/mL
same,IC50,SF-295 [4],1.03 µg/mL
same,IC50,HL-60,1.03 µg/mL
same,Activity,OVCAR-8 [5],96.32%
same,IC50,OVCAR-8 [6],1.03 µg/mL
same,IC50,Leishmania donovani,3.87 µg/mL
same,Activity,HCT-116 [7],96.32%
same,Activity,SF-295 [8],96.32%
CC1=C(O)C(=O)c2c(ccc(O)c2O)C1=O [DIONCOQUINONE B],EC50,SUD4,7.6 µM
same,EC50,[9],11 µM
same,EC50,RPMI-8226,7.6 µM
same,EC50,DOHH-2,7.6 µM
same,EC50,[10],7.6 µM
C[C@H]1C(=O)OC([C@@H](O)[C@](C)(O)[C@H]2[C@@H](O)C[C@H]3[C@@H]4C[C@H]5O[C@]56[C@@H](O)C=CC(=O)[C@]6(C)[C@H]4CC[C@]23C)[C@@H]1C (stereo not given in full),Activity,SW480,33.8%
CC(C)=CCCC1(C)OC1C=O (stereo in doubt; 10a),IC50,MIA PaCa-2; mia paca-2,88.7 µM
same,IC50,HUVEC,200 µM
same,IC50,[2]; defew,45 µM
C[C@@H]1NC(=O)[C@@H](C)NC(=O)[C@H](CCCCCC(=O)[C@@H]2CO2)NC(=O)[C@H]2CCCN2C1=O (cyclo(A[dP][Aoe][dA])),IC50,[11],0.018 µM
same,IC50,T47D,0.037 µM
same,IC50,BE(2)-C,0.015 µM
COc1cc(CNC(=O)CCCCC2OC2C(C)C)ccc1O (stereo not given),IC50,MCF7,50 µM
CC(=O)O[C@H]1[C@H]2O[C@]23[C@@H]2CC[C@@H]4C[C@@H](O)CC[C@]4(C)[C@H]2CC[C@]3(C)[C@H]1c1ccc(=O)oc1 [CINOBUFAGIN],IC50,SK-MES-1,2.3 µM
same,IC50,A549,2.3 µM
same,IC50,NCI-H460,2.3 µM
same,IC50,NCI-H1299,2.3 µM
same,IC50 at 72 h,[12],22.3 µM
same,IC50,Calu-3,2.3 µM
CO[C@H]1[C@@H](OC)C[C@H](C)[C@@H](OC)C2=CC(=O)C(N3CCN(C)CC3)=C(NC(=O)/C(C)=C/C=C\[C@H](OC)[C@H](OC(N)=O)C3(C)CC3[C@@H]1C)C2=O (stereo not given in full),T/C,B16,155%
same,T/C,Sarcoma-180 [13],167%
same,T/C,Ehrlich,141%
same,T/C,[14],358%
same,T/C,Sarcoma-180 [15],200%
